Reference: the NIST ThermoML archive (doi:10.1016/j.jct.2011.04.018)
Numbers after ± are expanded uncertainties.

Assay: activity coefficient (dimensionless); of the first substance listed, at infinite dilution; xn = mol fraction of the nth substance listed
Conditions: 101 kPa, Liquid, Chromatography, x1 = 0

SMILES	activity coefficient (308.15 K)	activity coefficient (318.15 K)	activity coefficient (328.15 K)	activity coefficient (338.15 K)	activity coefficient (348.15 K)	activity coefficient (358.15 K)	activity coefficient (368.15 K)	activity coefficient (378.15 K)
CCCCCCCCCC [decane] + O=S(=O)([N-]S(=O)(=O)C(F)(F)F)C(F)(F)F.OCCC[n+]1ccccc1	327 ± 22	284 ± 20	245 ± 17	214 ± 15	190 ± 13	168 ± 12	150 ± 10	
C1=CCCCC1 [cyclohexene] + O=S(=O)([N-]S(=O)(=O)C(F)(F)F)C(F)(F)F.OCCC[n+]1ccccc1	11.7 ± 0.8	11 ± 0.8	10.4 ± 0.7	9.81 ± 0.67	9.31 ± 0.64	8.92 ± 0.61	8.52 ± 0.58	
CCCCCCCC [octane] + O=S(=O)([N-]S(=O)(=O)C(F)(F)F)C(F)(F)F.OCCC[n+]1ccccc1	130 ± 9	116 ± 8	102 ± 7	91.1 ± 6.2	81.3 ± 5.6	73.6 ± 5	67.5 ± 4.6	
CCOCC [diethyl ether] + O=S(=O)([N-]S(=O)(=O)C(F)(F)F)C(F)(F)F.OCCC[n+]1ccccc1	2.71 ± 0.18	2.77 ± 0.19	2.82 ± 0.19	2.87 ± 0.2	2.91 ± 0.2	2.97 ± 0.2	3.01 ± 0.2	
C=CCCCCCC [oct-1-ene] + O=S(=O)([N-]S(=O)(=O)C(F)(F)F)C(F)(F)F.OCCC[n+]1ccccc1	58 ± 4	53 ± 3.6	48.5 ± 3.3	44.4 ± 3	41.1 ± 2.8	38.1 ± 2.6	35.6 ± 2.4	
C=CCCCCCCCC [1-decene] + O=S(=O)([N-]S(=O)(=O)C(F)(F)F)C(F)(F)F.OCCC[n+]1ccccc1	142 ± 10	128 ± 9	115 ± 8	104 ± 7	95.2 ± 6.5	86.6 ± 5.9	79.7 ± 5.5	
C#CCCCCCC [1-octyne] + O=S(=O)([N-]S(=O)(=O)C(F)(F)F)C(F)(F)F.OCCC[n+]1ccccc1	16.2 ± 1.1	15.5 ± 1.1	14.9 ± 1	14.2 ± 1	13.7 ± 0.9	13.2 ± 0.9	12.7 ± 0.9	
c1ccccc1 [benzene] + O=S(=O)([N-]S(=O)(=O)C(F)(F)F)C(F)(F)F.OCCC[n+]1ccccc1		1.58 ± 0.1	1.58 ± 0.1	1.59 ± 0.11	1.6 ± 0.11	1.61 ± 0.11	1.62 ± 0.11	1.62 ± 0.11
CCCO [propan-1-ol] + O=S(=O)([N-]S(=O)(=O)C(F)(F)F)C(F)(F)F.OCCC[n+]1ccccc1		1.6 ± 0.11	1.52 ± 0.1	1.46 ± 0.1	1.39 ± 0.09	1.34 ± 0.09	1.28 ± 0.08	1.24 ± 0.08
C1CCOC1 [tetrahydrofuran] + O=S(=O)([N-]S(=O)(=O)C(F)(F)F)C(F)(F)F.OCCC[n+]1ccccc1		0.695 ± 0.047	0.727 ± 0.048	0.757 ± 0.05	0.784 ± 0.051	0.812 ± 0.053	0.839 ± 0.054	0.866 ± 0.055
O [water] + O=S(=O)([N-]S(=O)(=O)C(F)(F)F)C(F)(F)F.OCCC[n+]1ccccc1		1.53 ± 0.1	1.42 ± 0.09	1.33 ± 0.09	1.24 ± 0.08	1.17 ± 0.07	1.1 ± 0.07	1.03 ± 0.06
CCCCCCCCC [nonane] + O=S(=O)([N-]S(=O)(=O)C(F)(F)F)C(F)(F)F.OCCC[n+]1ccccc1	206 ± 14	181 ± 12	157 ± 11	139 ± 10	125 ± 9	111 ± 8	99.7 ± 6.8	
CCC(=O)CC [pentan-3-one] + O=S(=O)([N-]S(=O)(=O)C(F)(F)F)C(F)(F)F.OCCC[n+]1ccccc1		0.936 ± 0.059	0.963 ± 0.061	0.991 ± 0.062	1.02 ± 0.06	1.04 ± 0.07	1.07 ± 0.07	1.09 ± 0.07
C#CCCCC [1-hexyne] + O=S(=O)([N-]S(=O)(=O)C(F)(F)F)C(F)(F)F.OCCC[n+]1ccccc1	6.38 ± 0.43	6.25 ± 0.43	6.13 ± 0.42	6 ± 0.41	5.91 ± 0.4	5.8 ± 0.4	5.72 ± 0.39	
CCCCCC [hexane] + O=S(=O)([N-]S(=O)(=O)C(F)(F)F)C(F)(F)F.OCCC[n+]1ccccc1	51.3 ± 3.5	46.7 ± 3.2	42.3 ± 2.9	38.5 ± 2.6	35.6 ± 2.4	32.8 ± 2.2		
Cc1ccccc1 [toluene] + O=S(=O)([N-]S(=O)(=O)C(F)(F)F)C(F)(F)F.OCCC[n+]1ccccc1		2.36 ± 0.16	2.37 ± 0.16	2.38 ± 0.16	2.39 ± 0.16	2.4 ± 0.16	2.41 ± 0.16	2.42 ± 0.16
C1COCCO1 [1,4-dioxane] + O=S(=O)([N-]S(=O)(=O)C(F)(F)F)C(F)(F)F.OCCC[n+]1ccccc1		0.514 ± 0.038	0.541 ± 0.04	0.568 ± 0.041	0.595 ± 0.042	0.621 ± 0.043	0.647 ± 0.044	0.672 ± 0.046
C=CCCCCC [1-heptene] + O=S(=O)([N-]S(=O)(=O)C(F)(F)F)C(F)(F)F.OCCC[n+]1ccccc1	35.7 ± 2.4	33.1 ± 2.3	30.7 ± 2.1	28.5 ± 1.9	26.7 ± 1.8	25.2 ± 1.7	23.7 ± 1.6	
CCCOCCC [dipropyl ether] + O=S(=O)([N-]S(=O)(=O)C(F)(F)F)C(F)(F)F.OCCC[n+]1ccccc1	9.62 ± 0.66	9.45 ± 0.64	9.28 ± 0.63	9.12 ± 0.62	8.99 ± 0.61	8.87 ± 0.61	8.75 ± 0.6	
CCCCO [butan-1-ol] + O=S(=O)([N-]S(=O)(=O)C(F)(F)F)C(F)(F)F.OCCC[n+]1ccccc1		2.27 ± 0.15	2.14 ± 0.15	2.02 ± 0.14	1.91 ± 0.13	1.82 ± 0.12	1.73 ± 0.12	1.67 ± 0.11
CCC(C)(C)OC [2-methoxy-2-methylbutane] + O=S(=O)([N-]S(=O)(=O)C(F)(F)F)C(F)(F)F.OCCC[n+]1ccccc1	4.37 ± 0.3	4.45 ± 0.3	4.54 ± 0.31	4.61 ± 0.31	4.7 ± 0.32	4.77 ± 0.33	4.84 ± 0.33	
c1ccsc1 [thiophene] + O=S(=O)([N-]S(=O)(=O)C(F)(F)F)C(F)(F)F.OCCC[n+]1ccccc1		1.27 ± 0.08	1.28 ± 0.08	1.29 ± 0.08	1.29 ± 0.08	1.3 ± 0.08	1.31 ± 0.09	1.31 ± 0.09
CCC(C)(C)C [2,2-dimethylbutane] + O=S(=O)([N-]S(=O)(=O)C(F)(F)F)C(F)(F)F.OCCC[n+]1ccccc1	41 ± 3	37.3 ± 2.6	33.9 ± 2.3	30.9 ± 2.1	28.5 ± 1.9	26.3 ± 1.8		
C=CCCC [1-pentene] + O=S(=O)([N-]S(=O)(=O)C(F)(F)F)C(F)(F)F.OCCC[n+]1ccccc1	14.2 ± 1	13.5 ± 0.9	12.7 ± 0.9	12 ± 0.8	11.5 ± 0.8			
C1CCCCCCC1 [cyclooctane] + O=S(=O)([N-]S(=O)(=O)C(F)(F)F)C(F)(F)F.OCCC[n+]1ccccc1	51.9 ± 3.6	46.4 ± 3.2	41.6 ± 2.8	37.3 ± 2.6	34 ± 2.3	31.3 ± 2.1	28.6 ± 2	
CC1CCCCC1 [methylcyclohexane] + O=S(=O)([N-]S(=O)(=O)C(F)(F)F)C(F)(F)F.OCCC[n+]1ccccc1	38.7 ± 2.6	35.2 ± 2.4	31.9 ± 2.2	29 ± 2	26.8 ± 1.8	24.7 ± 1.7	22.9 ± 1.6	
CC(C)=O [acetone] + O=S(=O)([N-]S(=O)(=O)C(F)(F)F)C(F)(F)F.OCCC[n+]1ccccc1		0.403 ± 0.034	0.421 ± 0.035	0.437 ± 0.035	0.453 ± 0.036	0.469 ± 0.037	0.484 ± 0.037	0.5 ± 0.038
COC(C)(C)C [2-methoxy-2-methylpropane] + O=S(=O)([N-]S(=O)(=O)C(F)(F)F)C(F)(F)F.OCCC[n+]1ccccc1	2.63 ± 0.18	2.74 ± 0.19	2.83 ± 0.19	2.91 ± 0.2	3.01 ± 0.2	3.08 ± 0.21	3.18 ± 0.22	
Cc1ccc(C)cc1 [1,4-dimethylbenzene] + O=S(=O)([N-]S(=O)(=O)C(F)(F)F)C(F)(F)F.OCCC[n+]1ccccc1		3.58 ± 0.24	3.6 ± 0.25	3.61 ± 0.25	3.62 ± 0.25	3.63 ± 0.25	3.64 ± 0.25	3.65 ± 0.25
